Experimental data published in patent US8691187B2, “Imaging agents for detecting neurological disorders” (Eli Lilly and Company, priority 2009, dated 2014).

Assays:
AD brain sections = test: Fluorescent compound staining on human AD brain sections (self-fluorescence, overall binding); conditions: figure legends; double labeling at 100 uM
From the text: (§1) Native forms of tau (various isoforms, hyperphosphorylated) and amyloid aggregates are present in brain sections and therefore preferred for compound testing. Using the self-fluorescence of a test compound can give an indication of whether the compound binds to tau tangles/PHFs and/or amyloid plaques. This is further confirmed by immunostaining with Aβ and tau antibodies and overlaying the images. […] However, it is possible to “rate” the signal strength qualitatively and distinguish compounds that show binding to these aggregates.
(§2) In one of the embodiments of the present invention, the self-fluorescence of the compound of formula (I) is used to determine whether the compound binds to tau/amyloid in the brain sections and to give it a qualitative rating. The next step is to proceed to the autoradiography using different brain types for further evaluation and quantitation.
(§3) Tau fluorescent compounds staining on human brain sections (Double or triple labeled with tau and β-amyloid Immunohistochemistry (IHC))
(§4) Serial sections (6 μm thick) from OCT-embedded frozen blocks of front lobe were used for staining (OCT—optimal cutting temperature). After fixation and quenching of autofluorescence, tissue sections were incubated with in 100 μM of tau compound in 50% ethanol PBS for 60 min. Then sections were dipped briefly into water, rinsed in PBS, blocked with 5% normal horse serum in PBS for 1 hour at room temperature. After blocking, the tissue was incubated with tau or β-amyloid primary antibody at 4° C. overnight in a humid chamber. Next day, the sections were washed with PBS and then incubated with secondary antibody for 1 hour.

tau aggregates = test: Fluorescent compound staining on human AD brain sections (tau IHC double labeling); type: binding; conditions: Table 2 acetylenes; 100 uM compound; qualitative rating + to ++++ or words
From the text: as §1, §2, §3, §4

synthetic tau = synthetic tau (Homo sapiens, UniProt P10636); test: Synthetic tau Kd (F-18 labeled and cold compound, filtration); type: binding; conditions: Scheme 5 table
Chain of synthetic tau (P10636 whole entry): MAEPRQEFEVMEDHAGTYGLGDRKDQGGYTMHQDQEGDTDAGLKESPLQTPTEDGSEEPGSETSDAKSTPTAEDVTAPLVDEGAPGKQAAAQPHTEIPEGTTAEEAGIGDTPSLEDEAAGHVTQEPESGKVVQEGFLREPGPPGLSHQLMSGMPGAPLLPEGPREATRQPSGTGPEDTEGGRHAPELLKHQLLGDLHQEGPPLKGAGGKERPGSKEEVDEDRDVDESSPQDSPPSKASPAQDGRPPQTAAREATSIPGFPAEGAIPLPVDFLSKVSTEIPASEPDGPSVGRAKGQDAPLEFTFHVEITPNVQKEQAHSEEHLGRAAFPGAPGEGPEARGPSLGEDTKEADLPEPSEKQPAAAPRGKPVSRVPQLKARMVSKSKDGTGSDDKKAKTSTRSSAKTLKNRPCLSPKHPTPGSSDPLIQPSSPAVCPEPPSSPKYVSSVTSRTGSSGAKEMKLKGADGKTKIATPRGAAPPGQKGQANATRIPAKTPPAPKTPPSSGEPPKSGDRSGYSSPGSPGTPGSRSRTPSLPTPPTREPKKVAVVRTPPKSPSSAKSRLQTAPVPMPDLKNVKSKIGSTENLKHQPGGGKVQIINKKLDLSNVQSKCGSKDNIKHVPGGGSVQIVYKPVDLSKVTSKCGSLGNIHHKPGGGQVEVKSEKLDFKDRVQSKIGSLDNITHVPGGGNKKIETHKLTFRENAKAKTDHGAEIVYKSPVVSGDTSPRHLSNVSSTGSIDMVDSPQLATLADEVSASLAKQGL
Protocol: Pick one brain section for each type and air-dry in hood. A solution of diluted F-18 labeled tracer (40 μCi/mL, 500 μL) which was obtained from the dilution of F-18 tracer with 1×PBS containing 2.5% EtOH and 2.5% DMSO was applied onto each slides to cover the whole tissue section. The resulting slides were incubated at room temperature for 90 minutes, drained, and placed onto a slide holder. The slides were then washed sequentially with 1×PBS for 1 min; 70% EtOH in 1×PBS for 2 min; 30% EtOH in 1×PBS for 2 min; and 1×PBS for 1 min. The slides were dried in the hood for 30 min, and then placed on Fuji imaging plates and exposed overnight. The imaging plates were then scanned and the signal was measured using Fuji software to produce an autoradiography image of the brain section. (PBS—Phosphate Buffer Saline) Protocol for Synthetic Beta-amyloid and Tau Kds
Various concentrations solution of F-18 labeled and its parent cold compound in 1×PBS containing 5% Ethanol and 5% DMSO (pH 7.4) were incubated with synthetic beta-Amyloid or synthetic tau at room temperature in glass tubes for 90 min. The reaction mixture in each tube was filtered under vacuum through a microfiber filter. Each tube was washed with a solution of 20% EtOH in PBS. The PBS wash solution was filtered under vacuum through the filters. Each filter was then washed with a solution of 20% EtOH in PBS and then placed into a gamma counter vial for CPM counting. The data obtained was plotted for Kd determination.

Kd (synthetic tau) [nM]	Structure (SMILES)	binding of fluorescent compound to AD brain sections confirmed by immunostaining with tau or Aβ antibodies (AD brain sections)	Brain Section Staining: tau (tau aggregates)
	CN(C)c1ccc(C#Cc2nc3ccccc3n2CCF)cc1 [Compound T482, 4-((1-(2-Fluoroethyl)-1H-benzo[d]imidazol-2-yl)ethynyl)-N,N-dimethylaniline]	total tau binding	Mostly binds to Tau
105	COc1ccc2nc3cc(-c4ccc(F)nc4)ccn3c2c1 [Compound T663, 3-(6-Fluoropyridin-3-yl)-8-methoxybenzo[4,5]imidazo[1,2-a]pyridine]		
